# From patent US20160128988A1, “COMBINATIONS FOR THE TREATMENT OF CANCER COMPRISING A MPS-1 KINASE INHIBITOR AND A MITOTIC INHIBITOR” (BAYER PHARMA AKTIENGESELLSCHAFT, priority 2013, published 2016)
# How the values were obtained:
# A2780cis xenograft model = tested on: A2780cis xenograft model
# Procedure: The effect of the combination treatment of Compound A1 with paclitaxel was studied in a human ovarian carcinoma model in nude mice, namely in the adaptive cisplatin-resistant and paclitaxel intrinsically-resistant A2780cis xenograft model. […] Paclitaxel was administered IV QW at its respective MTD.
# [1] = tested on: A2780 human ovarian carcinoma model; type: in vivo; conditions: Compound A1 single agent 1 mg/kg and 2.5 mg/kg (8 days); triple combination (17 treatment days)
# Procedure: Cisplatin and paclitaxel were administered in combination at their respective MTD, cisplatin intraperitoneally (IP) every second week (Q2W) and paclitaxel IV QW.
# [2] = tested on: human glioblastoma model U87 MG; assay: Combination with vincristine in human glioblastoma model U87 MG (intracerebral); type: in vivo, nude mice
# Procedure: The study was designed to determine the response of this glioblastoma model to the treatment with the investigational Compound A1 and vincristine, both alone at a fixed dose, and vincristine in combination with two different doses, both lower than that of Compound A1 used in the monotherapy schedule. The size of the glioblastoma was used as read out parameter for response.
# The cell culture derived human xenograft U87 MG was initiated by transplantation of the tumor cells into the left hemisphere of the mouse brain. Treatment was done in three cycles between day 3 and day 19. Mice were sacrificed at day 24, the brain isolated and shock frozen in 2 methyl-butane. Tumor size were determined as measure for tumor growth inhibition from cryo-slizes after staining.
# [3] = Maximum tolerated dose (MTD); type: in vivo, nude mice; conditions: nude, mouse, in vivo; Compound A1 PO 2QD 2 days on/5 days off; paclitaxel IV QW; docetaxel i.v. 1 day on/6 days off; read-out: MTD (maximum tolerated dose), single-agent
# [4] = day 24, single agents: Gr. B Compound A1 2.5 mg/kg p.o., Gr. C Vincristine 0.75 mg/kg i.p.
compound,measurement,setting,value
COc1cc(S(C)(=O)=O)ccc1Nc1nc2ccc(-c3ccc(NC(=O)[C@H](C)c4ccc(F)cc4)cc3)cn2n1 [Compound A1],T/Cweight,"A2780cis xenograft model; 14 treatment days, Compound A1 1 mg/kg PO 2QD 2 days on/5 days off",0.87
same,relative T/Carea,"A2780cis xenograft model; 14 treatment days, Compound A1 1 mg/kg PO 2QD 2 days on/5 days off, paclitaxel 24 mg/kg IV QW",0.89
same,anti-tumor efficacy (in words),"A2780cis xenograft model; Compound A1 1 mg/kg (14 days), combination with paclitaxel 24 mg/kg (36 treatment days)",weak single-agent efficacy
same,tolerability (in words),"A2780cis xenograft model; mouse, in vivo",well tolerated without critical body weight loss or toxicities
same,anti-tumor efficacy (in words),[1],weak single-agent efficacy
same,tumor growth inhibition (in words),"[2]; Compound A1 single drug 2.5 mg/kg, combination with vincristine",no inhibitory effect
same,"BWC [%] (at day), nadir of body weight",[2]; Gr. B: Compound A1 2.5 mg/kg p.o. BIDx2x3,−7.7 (d24) %
same,Brain tumor inside [mm^2],"[2]; day 24, single agents: Gr. B Compound A1 2.5 mg/kg p.o. BIDx2x3, Gr. C Vincristine 0.75 mg/kg i.p. 1xqWx3",15.89 +/− 9.93 mm^2
same,Brain tumor outside [mm^2],[2]; [4],5.50 +/− 4.09 mm^2
same,Brain tumor total [mm^2],[2]; [4],20.64 +/− 12.14 mm^2
same,T/C (inside T) [%],[2]; [4],91.3%
same,MTD,[3],2.5 mg/kg
